Measurements: patent US9617262B2, “Antibacterial cyclopental[C]pyrrole substituted 3,4-dihydro-1H-[1,8]naphthyridinones” (Janssen Sciences Ireland UC, priority 2011, dated 2017)

What was measured:
Human HelaM cells = assay: Cytotoxicity MTT assay (TOX HELAM); format: cell-based; details: 72 hours
Protocol: Cytotoxicity of the compounds was evaluated using the MTT assay. Human HelaM cells grown in 96-well plates were exposed to serial dilutions of the tested compounds (final volume of 0.2 ml) and incubated for 72 hours at 37° C. and 5% CO2. Inhibitors are typically varied over the range of 25 to 0.8 μM. The final DMSO concentration in the assay is 0.5%. MTT (3-(4,5-Dimethylthiazol-2-yl)-2,5-diphenyltetrazolium bromide, a tetrazole) was added and reduced to purple formazan only in living cells. Solubilization of the formazan crystals was achieved by adding 100 μl 2-propanol. Cell viability was determined by measuring the absorbance of the reduced formazan, giving a purple color, at 540 nm and 690 nm. The absorbance measured at 690 nm was automatically subtracted from the absorbance at 540 nm, to eliminate the effects of non-specific absorption. The percent cytotoxicity achieved by the compounds was calculated according to standard methods. Cytotoxicity is reported as CC50, the concentration that causes a 50% reduction in cell viability.
The results are depicted in the table D2 below (TOX HELAM).

[1] = tested on: Staphylococcus aureus ATCC 29213; assay: Antibacterial susceptibility testing: IC90 determination (STA); format: cell-based; details: STA ATCC 29213, 90% inhibitory concentration for bacterial growth
Protocol: (§1) The following bacteria were used: Staphylococcus aureus ATCC 29213, methicillin-resistant Staphylococcus aureus (MRSA) ATCC 700788 and Escherichia coli ATCC 35218. The bacteria used in this study were grown overnight in flasks containing 100 ml Mueller-Hinton broth (Difco cat. nr. 0757-17) in sterile de-ionized water, with shaking, at 37° C. Stocks were store at −70° C. until use.
(§2) Bacteria were incubated on a tryptic soy agar plate containing 5% sheep blood (Becton Dickinson cat. nr. 254053) for 18-24 hours at 35° C. in aerobic conditions (first passage). For the second passage, fresh Mueller-Hinton broth is inoculated with 5-10 colonies and grown overnight at 35° C. until turbidity (reaching log-phase) in aerobic conditions is reached. The bacterial suspension is then adjusted to 0.5 McFarland density and further diluted 1:100 in Mueller Hinton broth medium. This is used as inoculum.
(§3) MIC assays were performed by the broth microdilution method in a 96-well format (flat-bottom microtitre plates) with a final volume of 0.1 ml Mueller Hinton broth containing two-fold serial dilutions of compounds and inoculated with 5×10^5 CFU/ml of bacteria (standard inoculum size according to CLSI guidelines). Inhibitors are typically varied over the range of 63 to 0.49 μM. The final DMSO concentration in the assay was 1.25% (maximum tolerable DMSO concentration=6%). In the assays where the effect of human serum on the activity of the compounds against S. aureus was tested, human serum was added at a final concentration of 10%. The plates were incubated at 35° C. for 16-20 hours. At the end of incubation the bacterial growth was quantified fluorometrically. For this, resazurin was added to all wells and the plates were re-incubated. The incubation time is dependent on the type of bacteria. A change in color from blue to pink indicated the growth of bacteria. The fluorescence was read in computer-controlled fluorometer (Fluoroskan Ascent FL, Labsystems) at an excitation wavelength 540 nm and an emission wavelength of 590 nm. The % growth inhibition achieved by the compounds was calculated according to standard methods. The IC90 (expressed in μg/ml) was defined as the 90% inhibitory concentration for bacterial growth. A panel of reference compounds were simultaneously tested for QC approval.

[2] = target: S. aureus ATCC 29213 FabI (Staphylococcus aureus (strain MRSA252), UniProt Q6GI75); assay: Staphylococcus aureus FabI enzyme inhibition assay; format: biochemical; details: pH 6.5, 30 minutes at room temperature
Protocol: FabI enzyme inhibition assays were carried out in half-area, 384-well microtitre plates. Compounds were evaluated in 40-μl assay mixtures containing 100 mM NaADA, pH 6.5 (ADA=N-[2-acetamido]-2iminodiacetic acid), 250 μM crotonoyl-CoA, 625 μM NADH and 50 μg/ml S. aureus ATCC 29213 FabI. Inhibitors were typically varied over the range of 50 to 0.39 μM. The reaction mixtures were incubated for 30 minutes at room temperature and the reaction was stopped by adding 200 mM Tris buffer (pH 9.0) to create a pH-shift. The consumption of NADH was monitored by measuring the change in absorbance at […]. By comparing sample readings to those of negative (absence of compound) and positive (absence of enzyme) controls, the percent inhibition of enzymatic activity of the compounds was determined. A best-fit curve is fitted by a minimum of squares method. From this an IC50-value (expressed in μg/ml), resulting in 50% inhibition of enzymatic activity, was obtained.

S. aureus = assay: Antibacterial susceptibility testing: IC90 determination with 10% human serum (STA + 10% HS); format: cell-based, Staphylococcus aureus; details: human serum at a final concentration of 10%
Protocol: as §1, §2, §3
The results are depicted in the table D2 below (STA+10% HS).

| Structure (SMILES) | TOX HELAM (222.125) CC50 (Human HelaM cells) | STA (361.159) IC90 [1] | FabI IC50 [2] | STA + 10% HS (361.169) IC90 (S. aureus) |
| --- | --- | --- | --- | --- |
| O=C1CCc2cc(/C=C/C(=O)N3CC4C=C(c5cccnc5)CC4C3)cnc2N1 (racemic) [compound 26] | >3.8646 µg/mL | 1.11 µg/mL | 0.41 µg/mL | 1.11 µg/mL |
| O=C1CCc2cc(/C=C/C(=O)N3C[C@H]4CC(c5ccccc5)=C[C@H]4C3)cnc2N1 (single isomer, unassigned) [compound 13] | >9.683 µg/mL | 0.31 µg/mL | 0.39 µg/mL | 0.43 µg/mL |
| O=C1CCc2cc(/C=C/C(=O)N3C[C@H]4CC(c5ccncc5)=C[C@H]4C3)cnc2N1 (single isomer, unassigned) [compound 40] | – | – | 0.39 µg/mL | – |
| O=C1CCc2cc(/C=C/C(=O)N3CC4C=C(c5cccs5)CC4C3)cnc2N1 (stereo not drawn) [compound 3] | >3.256 µg/mL | 0.03 µg/mL | 0.29 µg/mL | 0.06 µg/mL |
| O=C1CCc2cc(/C=C/C(=O)N3C[C@@H]4CN(c5cccs5)C[C@@H]4C3)cnc2N1 [compound 4] | – | – | 0.70 µg/mL | – |
| O=C1CCc2cc(/C=C/C(=O)N3C[C@H]4CN(Cc5cccs5)C[C@H]4C3)cnc2N1 [compound 6] | – | – | 3.73 µg/mL | – |
| COc1ccccc1N1C[C@H]2CN(C(=O)/C=C/c3cnc4c(c3)CCC(=O)N4)C[C@H]2C1 [compound 8] | >10.5122 µg/mL | 1.15 µg/mL | 0.50 µg/mL | 1.52 µg/mL |
| O=C1CCc2cc(/C=C/C(=O)N3CC4C=C(c5ccccc5Cl)CC4C3)cnc2N1 (stereo not drawn) [compound 9] | 4.77 µg/mL | 0.33 µg/mL | 0.75 µg/mL | 0.69 µg/mL |
| Cc1ccccc1C1=CC2CN(C(=O)/C=C/c3cnc4c(c3)CCC(=O)N4)CC2C1 (stereo not drawn) [compound 11] | 6.19 µg/mL | 0.37 µg/mL | 0.48 µg/mL | 1.76 µg/mL |
| Cn1nccc1C1=CC2CN(C(=O)/C=C/c3cnc4c(c3)CCC(=O)N4)CC2C1 (stereo not drawn) [compound 15] | >9.783 µg/mL | 0.74 µg/mL | 0.48 µg/mL | 0.72 µg/mL |
| Cc1ccccc1N1C[C@H]2CN(C(=O)/C=C/c3cnc4c(c3)CCC(=O)N4)C[C@H]2C1 [compound 17] | >10.1103 µg/mL | 0.37 µg/mL | 0.38 µg/mL | 0.38 µg/mL |
| O=C1CCc2cc(/C=C/C(=O)N3C[C@@H]4CN(c5ccccc5Cl)C[C@@H]4C3)cnc2N1 [compound 18] | >10.6233 µg/mL | 0.21 µg/mL | 0.44 µg/mL | 0.37 µg/mL |
| O=C1CCc2cc(/C=C/C(=O)N3CC4C=C(c5ccco5)CC4C3)cnc2N1 (stereo not drawn) [compound 19] | >9.43 µg/mL | 0.18 µg/mL | ~0.62 µg/mL | 0.12 µg/mL |
| O=C1CCc2cc(/C=C/C(=O)N3C[C@@H]4CN(c5cccnc5)C[C@@H]4C3)cnc2N1 [compound 20] | – | – | 1.07 µg/mL | – |
| O=C1CCc2cc(/C=C/C(=O)N3CC4C=C(c5ccccc5F)CC4C3)cnc2N1 (stereo not drawn) [compound 21] | >4.0346 µg/mL | 0.13 µg/mL | 0.65 µg/mL | 0.29 µg/mL |
| N#Cc1ccccc1C1=CC2CN(C(=O)/C=C/c3cnc4c(c3)CCC(=O)N4)CC2C1 (stereo not drawn) [compound 23] | >10.3108 µg/mL | 0.67 µg/mL | 0.41 µg/mL | 0.79 µg/mL |
| O=C1CCc2cc(/C=C/C(=O)N3C[C@@H]4CN(c5nccs5)C[C@@H]4C3)cnc2N1 [compound 24] | >3.9549 µg/mL | 4.05 µg/mL | 0.58 µg/mL | 2.44 µg/mL |
| Cn1cc(C2=CC3CN(C(=O)/C=C/c4cnc5c(c4)CCC(=O)N5)CC3C2)cn1 (stereo not drawn) [compound 27] | – | – | 0.6 µg/mL | – |

| Structure (SMILES) | TOX HELAM (222.125) CC50 (Human HelaM cells) | STA (361.159) IC90 [1] | FabI IC50 [2] | STA + 10% HS (361.169) IC90 (S. aureus) |
| --- | --- | --- | --- | --- |
| O=C1CCc2cc(/C=C/C(=O)N3CC4CC(n5cccn5)CC4C3)cnc2N1 (stereo not drawn) [compound 29] | – | – | 1.04 µg/mL | – |
| C#CN1C[C@@H]2CN(C(=O)/C=C/c3cnc4c(c3)CCC(=O)N4)C[C@@H]2C1 [compound 30] | – | – | 2.66 µg/mL | – |
| COC1CC2CN(C(=O)/C=C/c3cnc4c(c3)CCC(=O)N4)CC2C1 (stereo not drawn) [compound 31] | – | – | 1.42 µg/mL | – |
| O=C1CCc2cc(/C=C/C(=O)N3CC4C=C(c5nccs5)CC4C3)cnc2N1 (stereo not drawn) [compound 32] | – | – | 0.46 µg/mL | – |
| O=C1CCc2cc(/C=C/C(=O)N3C[C@@H]4CN(S(=O)(=O)c5ccccc5)C[C@@H]4C3)cnc2N1 [compound 33] | – | – | 3.06 µg/mL | – |
| O=C1CCc2cc(/C=C/C(=O)N3CC4CC(F)(F)CC4C3)cnc2N1 (stereo not drawn) [compound 34] | – | – | 1.67 µg/mL | – |
| O=C1CCc2cc(/C=C/C(=O)N3C[C@@H]4CN(c5ccc(Cl)cc5)C[C@@H]4C3)cnc2N1 [compound 35] | – | – | 1.25 µg/mL | – |
| O=C1CCc2cc(/C=C/C(=O)N3C[C@@H]4CN(c5cccc(Cl)c5)C[C@@H]4C3)cnc2N1 [compound 36] | – | – | 0.93 µg/mL | – |
| O=C1CCc2cc(/C=C/C(=O)N3CC4CC(n5cncn5)CC4C3)cnc2N1 (stereo not drawn) [compound 37] | – | – | 3.37 µg/mL | – |
| O=C1CCc2cc(/C=C/C(=O)N3CC4CC(n5ccnn5)CC4C3)cnc2N1 (stereo not drawn) [compound 38] | – | – | 2.08 µg/mL | – |
| O=C1CCc2cc(/C=C/C(=O)N3CC4CC(n5nccn5)CC4C3)cnc2N1 (stereo not drawn) [compound 39] | – | – | 0.56 µg/mL | – |
| O=C1CCc2cc(/C=C/C(=O)N3C[C@@H]4CC(c5ccsc5)=C[C@@H]4C3)cnc2N1 [compound 45] | – | – | 0.45 µg/mL | – |
| CC1=CC2CN(C(=O)/C=C/c3cnc4c(c3)CCC(=O)N4)CC2C1 (stereo not drawn) [compound 52] | – | – | 0.50 µg/mL | – |
| O=C1CCc2cc(/C=C/C(=O)N3C[C@H]4CC(Oc5ccccc5)C[C@H]4C3)cnc2N1 (stereo partly drawn) [compound 54] | – | – | 1.84 µg/mL | – |
| Cc1ccc(C2=CC3CN(C(=O)/C=C/c4cnc5c(c4)CCC(=O)N5)CC3C2)o1 (stereo not drawn) [compound 57] | – | – | 0.62 µg/mL | – |
| Cc1cscc1C1=CC2CN(C(=O)/C=C/c3cnc4c(c3)CCC(=O)N4)CC2C1 (stereo not drawn) [compound 60] | – | – | 0.59 µg/mL | – |
| CC(=O)c1ccc(C2=CC3CN(C(=O)/C=C/c4cnc5c(c4)CCC(=O)N5)CC3C2)s1 (stereo not drawn) [compound 62] | – | – | 0.44 µg/mL | – |
| COc1ccsc1C1=CC2CN(C(=O)/C=C/c3cnc4c(c3)CCC(=O)N4)CC2C1 (stereo not drawn) [compound 72] | – | – | 0.43 µg/mL | – |
